From patent US20050147565A1, “Pharmaceutical compositions for the treatment of asthma” (Schering Corporation, priority 2001, published 2005)
Each block holds one compound with its values, some of them ahead of it.

How the values were obtained:
[1] = Drug Content Uniformity (DCU) through the life of a 120 dose MDI; format: physicochemical; conditions: Formoterol/Mometasone 6/50 μg/actuation inhaler
Procedure: The Drug Content Uniformity (DCU) of the inhaler was measured throughout the life of a 120 dose MDI to ascertain whether there was a consistency of dose of the active ingredients throughout the life of the product. Five canisters of each formulation (HFA 227 or HFA 134a) were analyzed and each canister delivered 120 actuations of medication and the amount of actives exiting the inhaler per actuation was measured at varying actuations, e.g., numbers 11, 12, 13, 14, (beginning) 59, 60, 61, 62 (middle) and 117, 118, 119 and 120 (end). Means were determined for the beginning, middle and end actuations, and an overall mean was determined and set forth in Examples 9 and 10 above.

[2] = cited from earlier work
[3] = cited from earlier work; remark: listed apart in the source
[4] = Percent change in fine particle size after temperature cycling; format: physicochemical
From the text: A finer particle size distribution of the mometasone furoate improves the fine particle fraction of the formulation exiting the inhaler upon actuation of the metered dose inhaler. […] The aerodynamic particle size distribution is well within the range of a typical efficacious topical lung medication, e.g., greater than 50% of the particles are less than 4.7 microns.

[5] = Andersen Cascade Impactor particle size distribution of the emitted dose of the metered dose inhaler; format: physicochemical; conditions: Formoterol/Mometasone 6/50 μg/actuation inhaler
From the text: The formulations of the present invention were further analyzed using an Andersen Cascade Impactor as described in Examples 6 and 7. The Andersen Cascade Impactor is widely used for measuring the particle size distribution of airborne particles and more specifically pharmaceutical aerosols. The eight stage Andersen Impactor separates the sample into nine size intervals when used with a backup filter after the last impaction stage. In FIGS. 1 to 4, this corresponds Stage 0 of particles having a particle size less than 10 μm to a particle size of 0.65-0.43 μm in stage 8, with the final stage corresponding to the filter for particles less than 0.43 μm. The measurement of the particle size at the “throat” in the figures corresponds to the entry port of the Impactor. The fine particle fraction is defined as the percentage of particles having a particle size of less than 4.7 μm. The fine particle dose is defined as the amount in μg per dose that is less than 4.7 μm in size in each actuation. The μg/shot is the total amount of emitted drug product that exits the metered dose inhaler upon actuation. The determination of the particle size distribution of the emitted dose of the formulation using an Andersen Cascade Impactor is known to one of skill in the art.
A formulation containing 6 μg of formoterol fumarate and 50 μg of mometasone furoate using HFA 227 in the absence of a bulking agent or carrier in a metered dose inhaler was analyzed by an Andersen Cascade Impactor to 5 analyze the amount of active drug ingredients and the particle size of the actives exiting the inhaler over time. […] The metered dose for both actives over time was also within acceptable limits (62.9 to 63.3 for mometasone and 6.6 to 6.5 for formoterol at the 4 month point). […]
A formulation containing 6 μg of formoterol fumarate and 50 μg of mometasone furoate using HFA 134a with lactose as a bulking agent in a metered dose inhaler was analyzed by an Andersen Cascade Impactor to analyze the amount of active drug ingredients and the particle size of the actives exiting the inhaler over time. […] Additionally, the metered dose actually delivered was also maintained over time within acceptable limits (64.1 to 63.7 for mometasone, 6.9 to 6.6 for formoterol). The fine particle fraction for both mometasone and formoterol was maintained within acceptable limits.

[6] = HFA 134a, low bulking agent, 1 Month, 4 C./40 C.
[7] = HFA 134a, low bulking agent, 1 Month, 40 C./75%
[8] = HFA 134a, low bulking agent, Initial
[9] = HFA 227, no bulking agent, 1 Month, 4 C./40 C.
[10] = HFA 227, no bulking agent, 1 Month, 40 C./75%
[11] = HFA 227, no bulking agent, Initial
[12] = HFA 134a, low bulking agent (lactose), 1 Month, 4 C./40 C.
[13] = HFA 134a, low bulking agent (lactose), 1 Month, 40 C./75%
[14] = HFA 134a, low bulking agent (lactose), 3 Month, 4 C./40 C.
[15] = HFA 134a, low bulking agent (lactose), 4 Month, 25 C./60%
[16] = HFA 134a, low bulking agent (lactose), 4 Month, 40 C./75%
[17] = HFA 134a, low bulking agent (lactose), Initial
[18] = HFA 227, without bulking agent, 1 Month, 4 C./40 C.
[19] = HFA 227, without bulking agent, 1 Month, 40 C./75%
[20] = HFA 227, without bulking agent, 3 Month, 4 C./40 C.
[21] = HFA 227, without bulking agent, 4 Month, 25 C./60%
[22] = HFA 227, without bulking agent, 4 Month, 40 C./75%
[23] = HFA 227, without bulking agent, Initial

Overall Mean μg/shot [1, 6]: 55.7 μg/shot | Overall Mean μg/shot [1, 7]: 57.0 μg/shot | Overall Mean μg/shot [1, 8]: 59.1 μg/shot | Overall Mean μg/shot [1, 9]: 55.6 μg/shot | Overall Mean μg/shot [1, 10]: 54.9 μg/shot | Overall Mean μg/shot [1, 11]: 54.7 μg/shot | percent change in fine particle size ([4]; grade of mometasone used in Example 6 (coarse), two weeks of temperature cycling at −10° C. and 40° C.): about 50% | percent change in fine particle size ([4]; similar mdi using mometasone furoate alone, finer grade of mometasone furoate, same cycling conditions (two weeks, −10° C. and 40° C.)): ≤ 15% | Fine Particle Dose (μg/shot) [5, 12]: 10.6 μg/shot | Fine Particle Fraction % [5, 12]: 20.1% | MMAD (microns) [5, 12]: 4.3 microns | μg/shot (metered dose) [5, 12]: 65.0 μg/shot | Fine Particle Dose (μg/shot) [5, 13]: 10.1 μg/shot | Fine Particle Fraction % [5, 13]: 20.1% | MMAD (microns) [5, 13]: 4.3 microns | μg/shot (metered dose) [5, 13]: 62.2 μg/shot | Fine Particle Dose (μg/shot) [5, 14]: 10.0 μg/shot | Fine Particle Fraction % [5, 14]: 20.0% | MMAD (microns) [5, 14]: 4.6 microns | μg/shot (metered dose) [5, 14]: 62.6 μg/shot | Fine Particle Dose (μg/shot) [5, 15]: 11.4 μg/shot | Fine Particle Fraction % [5, 15]: 22.6% | MMAD (microns) [5, 15]: 4.3 microns | μg/shot (metered dose) [5, 15]: 62.1 μg/shot | Fine Particle Dose (μg/shot) [5, 16]: 8.8 μg/shot | Fine Particle Fraction % [5, 16]: 17.7% | MMAD (microns) [5, 16]: 4.5 microns | μg/shot (metered dose) [5, 16]: 63.7 μg/shot | Fine Particle Dose (μg/shot) [5, 17]: 13.6 μg/shot | Fine Particle Fraction % [5, 17]: 25.7% | MMAD (microns) [5, 17]: 3.9 microns | μg/shot (metered dose) [5, 17]: 64.1 μg/shot | Fine Particle Dose (μg/shot) [5, 18]: 9.2 μg/shot | Fine Particle Fraction % [5, 18]: 16.4% | MMAD (microns) [5, 18]: 5.0 microns | μg/shot (metered dose) [5, 18]: 62.6 μg/shot | Fine Particle Dose (μg/shot) [5, 19]: 13.9 μg/shot | Fine Particle Fraction % [5, 19]: 25.3% | MMAD (microns) [5, 19]: 4.1 microns | μg/shot (metered dose) [5, 19]: 62.4 μg/shot | Fine Particle Dose (μg/shot) [5, 20]: 5.3 μg/shot | Fine Particle Fraction % [5, 20]: 9.8% | MMAD (microns) [5, 20]: 6.3 microns | μg/shot (metered dose) [5, 20]: 60.5 μg/shot | Fine Particle Dose (μg/shot) [5, 21]: 16.1 μg/shot | Fine Particle Fraction % [5, 21]: 30.4% | MMAD (microns) [5, 21]: 4.2 microns | μg/shot (metered dose) [5, 21]: 61.5 μg/shot | Fine Particle Dose (μg/shot) [5, 22]: 10.4 μg/shot | Fine Particle Fraction % [5, 22]: 18.6% | MMAD (microns) [5, 22]: 4.6 microns | μg/shot (metered dose) [5, 22]: 63.3 μg/shot | Fine Particle Dose (μg/shot) [5, 23]: 19.7 μg/shot | Fine Particle Fraction % [5, 23]: 36.5% | MMAD (microns) [5, 23]: 3.7 microns | μg/shot (metered dose) [5, 23]: 62.9 μg/shot
Structure (SMILES): C[C@@H]1C[C@H]2[C@@H]3CCC4=CC(=O)C=C[C@]4(C)[C@@]3(Cl)[C@@H](O)C[C@]2(C)[C@@]1(OC(=O)c1ccco1)C(=O)CCl [Mometasone Furoate, 9,21-Dichloro-11(beta), 17-dihydroxy-16(alpha)-methylpregna-1,4-diene-3,20-dione 17-(2 furoate)]
solubility in acetone [2]: soluble | solubility in chloroform ([2]; chloroform): soluble | solubility in ethanol [2]: slightly soluble | solubility in isopropanol [2]: slightly soluble | solubility in methanol [2]: slightly soluble | solubility in tetrahydrofuran ([2]; tetrahydrofuran): freely soluble | solubility in water [2]: practically insoluble | partition coefficient between octanol and water [3]: greater than 5000

Structure (SMILES): COc1ccc(CC(C)NCC(O)c2ccc(O)c(NC=O)c2)cc1.COc1ccc(CC(C)NCC(O)c2ccc(O)c(NC=O)c2)cc1.O.O.O=C(O)/C=C/C(=O)O (racemic) [Formoterol Fumarate, (±)2-hydroxy-5-[(1RS)-1-hydroxy-2-[[(1RS)-2-(4-methoxyphenyly-1methylethyl]-amino]ethyl]formanilide fumarate dihydrate]
Overall Mean μg/shot [1, 6]: 5.6 μg/shot | Overall Mean μg/shot [1, 7]: 6.0 μg/shot | Overall Mean μg/shot [1, 8]: 6.2 μg/shot | Overall Mean μg/shot [1, 9]: 5.5 μg/shot | Overall Mean μg/shot [1, 10]: 5.7 μg/shot | Overall Mean μg/shot [1, 11]: 5.7 μg/shot | solubility in acetone [2]: practically insoluble | solubility in diethyl ether ([2]; diethyl ether): practically insoluble | solubility in ethanol [2]: sparingly soluble | solubility in ethyl acetate ([2]; ethyl acetate): practically insoluble | solubility in glacial acetic acid ([2]; glacial acetic acid): freely soluble | solubility in isopropanol [2]: sparingly soluble | solubility in methanol [2]: soluble | solubility in water [2]: slightly soluble | Fine Particle Dose (μg/shot) [5, 12]: 2.0 μg/shot | Fine Particle Fraction % [5, 12]: 38.0% | MMAD (microns) [5, 12]: 3.1 microns | Fine Particle Dose (μg/shot) [5, 13]: 2.1 μg/shot | Fine Particle Fraction % [5, 13]: 41.3% | MMAD (microns) [5, 13]: 2.9 microns | Fine Particle Dose (μg/shot) [5, 14]: 2.2 μg/shot | Fine Particle Fraction % [5, 14]: 40.2% | MMAD (microns) [5, 14]: 3.2 microns | Fine Particle Dose (μg/shot) [5, 15]: 2.3 μg/shot | Fine Particle Fraction % [5, 15]: 43.6% | MMAD (microns) [5, 15]: 3.0 microns | Fine Particle Dose (μg/shot) [5, 16]: 2.1 μg/shot | Fine Particle Fraction % [5, 16]: 40.3% | MMAD (microns) [5, 16]: 3.1 microns | Fine Particle Dose (μg/shot) [5, 17]: 2.4 μg/shot | Fine Particle Fraction % [5, 17]: 42.5% | MMAD (microns) [5, 17]: 2.9 microns | Fine Particle Dose (μg/shot) [5, 18]: 2.2 μg/shot | Fine Particle Fraction % [5, 18]: 39.0% | MMAD (microns) [5, 18]: 3.3 microns | μg/shot (metered dose) [5, 18]: 6.3 μg/shot | Fine Particle Dose (μg/shot) [5, 19]: 2.4 μg/shot | Fine Particle Fraction % [5, 19]: 41.1% | MMAD (microns) [5, 19]: 3.2 microns | μg/shot (metered dose) [5, 19]: 6.6 μg/shot | Fine Particle Dose (μg/shot) [5, 20]: 1.9 μg/shot | Fine Particle Fraction % [5, 20]: 35.2% | MMAD (microns) [5, 20]: 3.3 microns | μg/shot (metered dose) [5, 20]: 6.3 μg/shot | Fine Particle Dose (μg/shot) [5, 21]: 2.6 μg/shot | Fine Particle Fraction % [5, 21]: 47.3% | MMAD (microns) [5, 21]: 3.2 microns | μg/shot (metered dose) [5, 21]: 6.5 μg/shot | Fine Particle Dose (μg/shot) [5, 22]: 2.2 μg/shot | Fine Particle Fraction % [5, 22]: 40.1% | MMAD (microns) [5, 22]: 3.4 microns | μg/shot (metered dose) [5, 22]: 6.5 μg/shot | Fine Particle Dose (μg/shot) [5, 23]: 2.6 μg/shot | Fine Particle Fraction % [5, 23]: 46.3% | MMAD (microns) [5, 23]: 3.2 microns | μg/shot (metered dose) [5, 23]: 6.6 μg/shot
